The assay deals with Gbe^ys/ys mice. Kind of assay: Histological PG (PAS after diastase) and biochemical glycogen determination in tissues. Type of assay: in vivo. The source says: FIGS. 2A-2C include images and graphs of histopathological effects of Compound 1 and its pharmacokinetics: right panel present images of indicated tissues of sacrificed mice and stained for PG (arrows) with PAS following treatment with diastase; left panel, presents bar graphs quantifying PAS staining, based on analysis of 4 sections from each tissue in n=2 wild type, n=7 Gbe^ys/ys vehicle-treated, and n=9 Compound 1-treated mice (2A); bar graph quantifying total glycogen in the respective tissues (2B); graph of Compound 1pharmacokinetics (2C); 9 months old Gbe^ys/ys mice were SC-injected with 150 μL of Compound 1 at 250 mg/kg. Mice were sacrificed 30-, 60-, 90-, and 210-min post injection and the indicated tissues were removed, as well as 200 μL of serum drawn. […] Shown are means and SEM of results obtained from n=3 mice at each time point.
Brain, heart, muscle, nerve fascicles (peripheral nerves), and liver tissues from wt and Compound 1 and vehicle treated Gbe^ys/ys animals were separated to characterize the histopathological effects of Compound 1. Tissues were extracted, fixed, embedded in paraffin, and sectioned. After deparaffinization, sections were treated for 5 min with 0.5% diastase to digest non-polyglucosan glycogen, leaving behind polyglucosan. Sections were then washed, stained for polyglucosan with PAS and counterstained with hematoxylin, and analyzed by light microscopy, all as previously described. […] Following digestion, total glycogen was determined based on the glucose content using the Sigma GAGO20 kit.
This information is important for determining whether the expected mode of action of Compound 1 discovered ex vivo -reduction of polyglucosan levels in fibroblasts — also takes place in vivo and if so in which tissues. […] Following diastase treatment to digest non-polyglucosan glycogen, leaving behind polyglucosan, sections were stained for polyglucosan with periodic acid-Schiff s (PAS) reagent, counterstained with hematoxylin and analyzed by light microscopy.

[1] abbreviates: PAS after diastase, sacrifice at 9.5 months.

Take `COCCN(Cc1sccc1C)C(=O)c1cc(C)nc(O)c1` [Compound 1]: under setting [1], the muscle polyglucosans result is recorded as “no apparent effect”; the “polyglucosan levels in brain, liver, heart, and peripheral nerve” value is recorded as “significant reduction in polyglucosan levels”. For the same molecule, the “total glycogen levels, determined biochemically” value (same tissues) is listed as “correspondingly affected”.

The record behind these values is patent publication US20240139167A1, “LYSOSOME-ASSOCIATED MEMBRANE PROTEIN TARGETING COMPOUNDS AND USES THEREOF” (HADASIT MEDICAL RESEARCH SERVICES AND DEVELOPMENT LTD., priority 2021, published 2024).
